Among the data in patent US20230104936A1, “TRPML MODULATORS” (Casma Therapeutics, Inc., priority 2019, published 2023) are AC50 values, retold here.

This experiment concerns TFEB. In words: TFEB nuclear translocation assay, HeLa wt cells. It is filed as cell-based. The following applies: 2 hrs compound treatment, Table 1 does not say HeLa wt or TRPML1 KO. Put shortly: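 HeLa wt cells were treated with compound for 2 hrs at 37° C, then fixed in 4% PFA and immunostained for TFEB with an Alexa 488 secondary and Hoechst nuclear counterstain. Automated epifluorescence imaging at ×20 gave the ratio of nuclear TFEB intensity to a perinuclear ring region, from which AC50 was derived.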

The term AC50 denotes the concentration giving half of the maximal activity seen.

In turn, `CC(c1cccc(F)c1N1[C@@H]2CCC[C@H]1CC2)S(=O)(=O)c1ccc(S(=N)(=O)N(C)C)cc1` (single isomer, unassigned) [Compound A-989, 4-((1-(2-(8-azabicyclo[3.2.1]octan-8-yl)-3-fluorophenyl)ethyl)sulfonyl)-N,N-dimethylbenzenesulfonimidamide] had a concentration at half-maximal activity (AC50) of 8.01 to 9.99 µM. Take `CN(C)S(=O)(=O)c1ccc(S(=O)(=O)Nc2ccccc2N2CCN(C(=O)[C@@H]3C[C@@H]4CC[C@H]3O4)CC2)cc1` (racemic) [Compound A-449, rac-N1,N1-dimethyl-N4-(2-{4-[(1R,2R,4S)-7-oxabicyclo[2.2.1]heptane-2-carbonyl]piperazin-1-yl}phenyl)benzene-1,4-disulfonamide]: for the setting “Homo sapiens, HeLa, 2 h”, the AC50 was 2.01 to 8 µM. On the same count and under the same terms, the figure for `COc1ccc(S(=O)(=O)Nc2ccccc2N2CCC(Cc3ccc(F)cc3F)CC2)cc1` [Compound A-195, N-(2-{4-[(2,4-difluorophenyl)methyl]piperidin-1-yl}phenyl)-4-methoxybenzene-1-sulfonamide] is 2.01 to 8 µM; for `COCC1(C)CCN(c2ccccc2NS(=O)(=O)C2(c3ccccc3)CC2)CC1` [Compound A-649, N-{2-[4-(methoxymethyl)-4-methylpiperidin-1-yl]phenyl}-1-phenylcyclopropane-1-sulfonamide] it is 2.01 to 8 µM; for `C[C@@H]1CN(c2ccccc2NS(=O)(=O)c2ccc(S(=O)(=O)N(C)C)cc2)C[C@H](C)N1c1ccc(Cl)cn1` [Compound A-121, N4-{2-[(3R,5S)-4-(5-chloropyridin-2-yl)-3,5-dimethylpiperazin-1-yl]phenyl}-N1,N1-dimethylbenzene-1,4-disulfonamide] it is not above 2 µM.

With `CC(C)C(=O)c1ccc(S(=O)(=O)Nc2ccccc2N2CCC3(CC2)COC(C)(C)C3)cc1` [Compound A-657, N-(2-{3,3-dimethyl-2-oxa-8-azaspiro[4.5]decan-8-yl}phenyl)-4-(2-methylpropanoyl)benzene-1-sulfonamide], the concentration at half-maximal activity (AC50) (Homo sapiens, HeLa, 2 h) was in the range of 8.01 to 9.99 µM. For the compound `CC(c1cccc(F)c1N1CCC(CN2C3CCC2COC3)CC1)S(=O)(=O)c1ccc2c(c1)CC(C)(C)O2` (stereo not drawn) [Compound A-886, 8-{[1-(2-{1-[(2,2-dimethyl-2,3-dihydro-1-benzofuran-5-yl)sulfonyl]ethyl}-6-fluorophenyl)piperidin-4-yl]methyl}-3-oxa-8-azabicyclo[3.2.1]octane], the half-maximal activity concentration (AC50) (Homo sapiens, HeLa, 2 h) was not above 2 µM. `C[C@@H]1CN(CC2CCN(c3c(F)cccc3NS(=O)(=O)c3ccc(S(=N)(=O)N(C)C)cc3)CC2)C[C@H](C)O1` (single isomer, unassigned) [Compound A-810, Rel-N-(2-(4-((2,6-dimethylmorpholino)methyl)piperidin-1-yl)-3-fluorophenyl)-4-(N,N-dimethylsulfamidimidoyl)benzenesulfonamide] gave an AC50 (Homo sapiens, HeLa, 2 h) not above 2 µM. Under “Homo sapiens, HeLa, 2 h”, `CN(C)S(=O)(=O)c1ccc(S(=O)(=O)Nc2cccc(Cl)c2N2CCOCC2)nc1` [Compound A-340, N2-[3-chloro-2-(morpholin-4-yl)phenyl]-N5,N5-dimethylpyridine-2,5-disulfonamide] returned a half-maximal activity concentration (AC50) not below 10 µM. Regarding `CN(C)S(=O)(=O)c1ccc(S(=O)(=O)Nc2ccccc2N2CCCC23CCOC3)cc1` (stereo not drawn) [Compound A-508, N1,N1-dimethyl-N4-(2-{7-oxa-1-azaspiro[4.4]nonan-1-yl}phenyl)benzene-1,4-disulfonamide], where the note is “Homo sapiens, HeLa, 2 h”, the AC50 is 2.01 to 8 µM. For the compound `O=S(=O)(Nc1ccccc1N1CCC(c2ccc(F)cc2F)CC1)c1ccc(C(F)F)cn1` [Compound A-137, 5-(difluoromethyl)-N-{2-[4-(2,4-difluorophenyl)piperidin-1-yl]phenyl}pyridine-2-sulfonamide], the AC50 (Homo sapiens, HeLa, 2 h) was in the range of 2.01 to 8 µM. For `Cc1nc(C2CCN(c3ccc(Cl)cc3F)CC2)cn1S(=O)(=O)c1ccc(S(=O)(=O)N(C)C)cc1` [Compound A-39, 4-((4-(1-(4-chloro-2-fluorophenyl)piperidin-4-yl)-2-methyl-1H-imidazol-1-yl)sulfonyl)-N,N-dimethylbenzenesulfonamide], under “Homo sapiens, HeLa, 2 h”, the AC50 fell in the range of 2.01 to 8 µM.
